# Reference: patent publication US11458134B2, “1-[2-(2,4-dimeihylphenylsulfanyl)-phenyl]piperazine as a compound with combined serotonin reuptake, 5-HT3 and 5-HT1A activity for the treatment of cognitive impairment” (H. Lundbeck A/S, priority 2006, dated 2022)
# Where two headings read alike, the source gives them in different places.
# How the values were obtained:
# [1] = test system: Sprague-Dawley rats; assay: Contextual fear conditioning in rats; type: in vivo; details: for time spent freezing during the retention test: 24 h after acquisition
# Text: The compound administered in the present experiment was 1-[2-(2,4-dimethylphenylsulfanyl)phenyl]piperazine HBr salt.
# We have studied the effect of the compound on acquisition, consolidation and recall of contextual fear conditioning in rats. In the fear conditioning paradigm animals learn to associate a neutral environment (context, the training chamber, CS) with an aversive experience (an electrical foot-shock, US). During re-exposure to the training chamber, animals express a freezing behaviour, which is taken as a direct measure of the fear-related memory [Pavlov J. Biol. Sci., 15, 177-182, 1980]. […] Neurosci., 106, 274-285, 1992].
# Adult male Sprague-Dawley rats (weighing 250-300 g at time of training) from Charles River Laboratories, housed two per cage under a 12 h light/dark cycle, were used. Food and water were available ad libitum. Rats were used 1 week after arrival. The compound was dissolved in 10% HPbetaCD and injected subcutaneously. The drug was administered in a volume of 2.5 ml/kg.
# Training and testing were conducted in a soundproof chamber (30×20×40 cm) housed in an isolated room and connected to a ventilation system. Illumination was provided by a white light (60 Watt). The floor of the chamber consisted of a metal grid attached to an electric shock generator. Prior to training and testing, the chamber was cleaned with a 70% ethanol solution. A video camera allowed for behavioral observations and recording of the training session for off-line analysis.
# During the acquisition animals were allowed to freely explore the novel environment for a 1 min habituation period, which co-terminated with one inescapable foot-shock (unconditioned stimulus, US) through the electrifiable grid floor. […] Animals remained in the conditioning chamber for another 60 s after the US. Freezing behaviour was scored during the first 58 s (pre-shock acquisition; experimenter blinded to groups) to determine baseline-freezing responses to the context. At the end of the acquisition animals were gently removed and placed into their home cages. After 24 h the same animals were reintroduced into the training context (fear conditioning chamber) and a 2 min retention test was performed. During this period no foot shocks were applied. Freezing behaviour was scored during the whole test period with the experimenter blinded to groups and presented as percent of total test period.
# [2] = test system: acetylcholine; assay: Microdialysis: extracellular acetylcholine in the brain of freely moving rats; type: in vivo, Sprague-Dawley rats; details: rat, subcutaneously 2.5-10 mg/kg
# Protocol: The animals were administered 1-[2-(2,4-dimethylphenylsulfanyl)phenyl]-piparazine, HBr salt.
# Male Sprague-Dawley rats, initially weighing 275-300 g, were used. The animals were housed under a 12-hr light/dark cycle under controlled conditions for regular in-door temperature (21±2° C.) and humidity (55±5%) with food and tap water available ad libitum.
# Rats were anaesthetised with hypnorm/dormicum (2 ml/kg) and intracerebral guide cannulas (CMA/12) were stereotaxically implanted into the brain, aiming at positioning the dialysis probe tip in the ventral hippocampus (co-ordinates: 5.6 mm posterior to bregma, lateral −5.0 mm, 7.0 mm ventral to dura) or in the prefrontal cortex (co-ordinates: 3.2 mm anterior to bregma; lateral, 0.8 mm; 4.0 mm ventral to dura). […] The body temperature of the animals was monitored by rectal probe and maintained at 37° C. […]
# The compound dissolved in 10% HPbetaCD and injected subcutaneously (2.5-10 mg/kg). Doses are expressed as mg salt/kg body weight. […]
# Concentration of acetylcholine (ACh) in the dialysates was analysed by means of HPLC with electrochemical detection using a mobile phase consisting of 100 mM disodium hydrogenphosphate, 2.0 mM octane sulfonic acid, 0.5 mM tetramethyl-ammonium chloride and 0.005% MB (ESA), pH 8.0. […] The latter was detected electrochemical by using a platinum electrode (Analytical cell: ESA, model 5040). […]
# [3] = physchem; details: water
# [4] = Solubility in water
# [5] = target: Rat serotonin transporter (Rattus norvegicus, UniProt P31652); assay: Rat serotonin transporter, blockade of 5-HT uptake; type: biochemical
# Rat serotonin transporter, sequence (P31652 whole entry): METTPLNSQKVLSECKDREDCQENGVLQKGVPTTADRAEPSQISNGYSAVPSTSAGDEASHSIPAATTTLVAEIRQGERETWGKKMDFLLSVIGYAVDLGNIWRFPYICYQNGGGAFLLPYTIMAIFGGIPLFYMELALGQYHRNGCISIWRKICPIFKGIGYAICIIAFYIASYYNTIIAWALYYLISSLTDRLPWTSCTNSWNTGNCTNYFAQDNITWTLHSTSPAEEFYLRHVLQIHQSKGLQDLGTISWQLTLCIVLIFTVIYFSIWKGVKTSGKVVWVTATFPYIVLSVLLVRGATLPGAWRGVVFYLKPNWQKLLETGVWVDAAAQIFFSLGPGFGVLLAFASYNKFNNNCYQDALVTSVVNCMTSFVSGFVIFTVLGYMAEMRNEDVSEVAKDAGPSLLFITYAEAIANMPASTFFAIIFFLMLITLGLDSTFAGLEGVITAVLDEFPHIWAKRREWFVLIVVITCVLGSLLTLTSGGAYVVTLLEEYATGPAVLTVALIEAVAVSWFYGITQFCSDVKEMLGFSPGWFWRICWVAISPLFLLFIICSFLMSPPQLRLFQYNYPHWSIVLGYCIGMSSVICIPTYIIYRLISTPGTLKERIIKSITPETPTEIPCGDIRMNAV
# [6] = target: T1, Human 5-HT3A receptor (Homo sapiens, UniProt P46098); assay: Human 5-HT3A receptor functional assay (cloned into oocytes); type: cell-based; details: at higher concentration, read-out: ED50 (agonistic activity)
# T1 sequence (P46098 24-478): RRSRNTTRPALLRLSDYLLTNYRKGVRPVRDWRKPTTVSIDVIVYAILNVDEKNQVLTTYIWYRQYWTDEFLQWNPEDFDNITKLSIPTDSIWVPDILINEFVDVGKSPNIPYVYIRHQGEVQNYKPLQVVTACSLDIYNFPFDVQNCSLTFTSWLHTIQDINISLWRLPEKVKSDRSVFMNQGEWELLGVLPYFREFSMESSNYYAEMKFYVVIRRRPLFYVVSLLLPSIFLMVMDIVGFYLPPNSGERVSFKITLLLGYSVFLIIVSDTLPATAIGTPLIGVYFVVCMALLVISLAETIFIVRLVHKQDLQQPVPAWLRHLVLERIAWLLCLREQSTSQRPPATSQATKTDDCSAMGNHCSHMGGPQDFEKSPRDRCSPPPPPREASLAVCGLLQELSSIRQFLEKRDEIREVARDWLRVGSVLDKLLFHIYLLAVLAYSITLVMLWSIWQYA
# Text: As shown in example 1, the compounds of the present invention are potent inhibitors of the human serotonin transporter, i.e. they inhibit serotonin reuptake. Moreover, the compounds are potent antagonists at the mouse, rat, guinea pig and canine 5-HT3 receptor. […] Thus, at low concentrations compounds of the present invention display a marked antagonism at the human 5-HT3 receptor as observed on the 5-HT3 receptor from other species.
# [7] = Hygroscopicity (water absorption versus relative humidity); type: physicochemical
structure (smiles),measurement,setting,value
"Br.Cc1ccc(Sc2ccccc2N2CCNCC2)c(C)c1 [1-[2-(2,4-dimethylphenylsulfanyl)phenyl]piperazine HBr salt]",time spent freezing during the retention test,[1]; 5 mg/kg s.c. 1 h prior to acquisition,39.24±13.76%
same,freezing behaviour during the memory test,"[1]; 5 mg/kg s.c. 1 h prior to the retention test, p<0.05",12.86±3.57%
same,time spent freezing during the retention test,"[1]; 5 mg/kg s.c. after the acquisition session, p<0.05",45.58±4.50%
same,time spent freezing during the retention test,"[1]; 10 mg/kg s.c. 1 h prior to acquisition, p<0.01",52.15±5.68%
same,contextual memory,[1]; rats,enhances contextual memory
same,baseline freezing behaviour before the foot shock,"[1]; rats, 1, 5 and 10 mg/kg s.c. 1 h prior to acquisition",does not affect
same,extra-cellular levels of ACh in prefrontal cortex,[2]; FIG. 19a,significantly increased
same,extra-cellular levels of ACh in ventral hippocampus,[2]; FIG. 19b,significantly increased
"Cc1ccc(Sc2ccccc2N2CCNCC2)c(C)c1.O=C(O)C(O)C(O)C(=O)O [L-(+)-tartrate, 1-[2-(2,4-Dimethylphenylsulfanyl)-phenyl]piperazine (+)-tartaric acid]",solubility,[3],~400 µg/mL
"Br.Cc1ccc(Sc2ccccc2N2CCNCC2)c(C)c1 [beta form of the hydrobromide, 1-[2-(2,4-Dimethylphenylsulfanyl)-phenyl]piperazine hydrobromide]",solubility in water,[4]; hydrobromide,1200 µg/mL
"Cc1ccc(Sc2ccccc2N2CCNCC2)c(C)c1 [compound I, 1-[2-(2,4-dimethylphenylsulfanyl)-phenyl]piperazine]",IC50,[5],5.3 nM
same,EC50,[6],2100 nM
"Cc1ccc(Sc2ccccc2N2CCNCC2)c(C)c1 [crystalline base, 1-[2-(2,4-Dimethylphenylsulfanyl)-phenyl]piperazine]",solubility in water,[4],100 µg/mL
same,hygroscopicity,[7],not hygroscopic
"Br.CCOC(C)=O.Cc1ccc(Sc2ccccc2N2CCNCC2)c(C)c1 [ethyl acetate solvate, 1-[2-(2,4-Dimethylphenylsulfanyl)-phenyl]piperazine HBr EtOAc solvate]",hygroscopicity,[7],hygroscopic
"Cc1ccc(Sc2ccccc2N2CCNCC2)c(C)c1.O=C(O)/C=C/C(=O)O [fumarate, 1-[2-(2,4-Dimethyl-phenylsulfanyl)-phenyl]-piperazine fumarate]",solubility,[3],400 µg/mL
"Br.Cc1ccc(Sc2ccccc2N2CCNCC2)c(C)c1 [gamma form of the hydrobromide, 1-[2-(2,4-Dimethylphenylsulfanyl)-phenyl]piperazine hydrobromide]",water absorbed at 30% RH,[7]; 30% RH at room temperature,about 2%
Br.Cc1ccc(Sc2ccccc2N2CCNCC2)c(C)c1 [hemi hydrate of the hydrobromide],water content,[7]; room temperature and 95% RH,about 3.7%
"Cc1ccc(Sc2ccccc2N2CCNCC2)c(C)c1.Cl [hydrochloride monohydrate, 1-[2-(2,4-Dimethylphenylsulfanyl)-phenyl]piperazine HCl]",hygroscopicity,[7],does not absorb further amount of water
same,solubility,[3],~2000 µg/mL
"Cc1ccc(Sc2ccccc2N2CCNCC2)c(C)c1.O=C(O)/C=C\C(=O)O [maleate, 1-[2-(2,4-Dimethylphenylsulfanyl)-phenyl]piperazine Maleate]",solubility,[3],~1000 µg/mL
"CS(=O)(=O)O.Cc1ccc(Sc2ccccc2N2CCNCC2)c(C)c1 [mesylate, 1-[2-(2,4-Dimethylphenylsulfanyl)-phenyl]piperazine mesylate]",hygroscopicity,[7],hygroscopic
same,solubility,[3],> 45000 µg/mL
"Cc1ccc(Sc2ccccc2N2CCNCC2)c(C)c1.O=[N+]([O-])O [nitrate, 1-[2-(2,4-Dimethylphenylsulfanyl)-phenyl]piperazine nitrate]",solubility,[3],~800 µg/mL
"Cc1ccc(Sc2ccccc2N2CCNCC2)c(C)c1.O=P(O)(O)O [phosphate, 1-[2-(2,4-Dimethylphenylsulfanyl)-phenyl]piperazine phosphate]",solubility,[3],~1000 µg/mL
"Cc1ccc(Sc2ccccc2N2CCNCC2)c(C)c1.O=S(=O)(O)O [sulphate, 1-[2-(2,4-Dimethylphenylsulfanyl)-phenyl]piperazine sulphate]",solubility,[3],~100 µg/mL
